≈ marks a conversion by molar mass, not a printed value.
Tests used:
[1] = Solubility in water at 20 degC; type: physicochemical
[2] = molecular target: Ryanodine receptor 1 (Mus musculus, UniProt E9PZQ0); assay: Activation of ryanodine receptor 1 in mouse C2C12 cells assessed as induction of calcium mobilization; type: cell-based
[3] = Activation of ryanodine receptor in Periplaneta americana neurons
[4] = test system: Spodoptera frugiperda; assay: Insecticidal activity against Spodoptera frugiperda larvae; type: functional, organism-based
[5] = test system: Heliothis virescens; assay: Insecticidal activity against Heliothis virescens larvae; type: functional, organism-based
[6] = Activation of Heliothis virescens recombinant ryanodine receptor
[7] = molecular target: Ryanodine receptor 2 (Homo sapiens, UniProt Q92736); assay: Activation of ryanodine receptor in human IMR32 cells assessed as induction of calcium mobilization; type: cell-based, IMR-32
[8] = test system: Plutella xylostella; assay: Insecticidal activity against Plutella xylostella larvae; type: functional, organism-based
[9] = test system: C2C12; assay: Selectivity for Heliothis virescens recombinant ryanodine receptor over ryanodine receptor 1 in mouse C2C12 cells; type: cell-based
[10] = Octanol-water partition coefficient, log P at 20 degC; type: physicochemical
[11] = test system: PC-12; assay: Selectivity for Drosophila melanogaster ryanodine receptor over ryanodine receptor 2 in rat PC12 cells; type: cell-based
[12] = molecular target: Ryanodine receptor 2 (Rattus norvegicus, UniProt B0LPN4); assay: Activation of ryanodine receptor 2 in rat PC12 cells assessed as induction of calcium mobilization; type: cell-based, PC-12
[13] = Activation of ryanodine receptor-mediated calcium release in Heliothis virescens neurons
[14] = physchem; details: octanol/water
Description: Octanol-water partition coefficient, log P at 24.9 degC

Ryanodine receptor 2 (Homo sapiens, UniProt Q92736), sequence (Q92736 whole entry): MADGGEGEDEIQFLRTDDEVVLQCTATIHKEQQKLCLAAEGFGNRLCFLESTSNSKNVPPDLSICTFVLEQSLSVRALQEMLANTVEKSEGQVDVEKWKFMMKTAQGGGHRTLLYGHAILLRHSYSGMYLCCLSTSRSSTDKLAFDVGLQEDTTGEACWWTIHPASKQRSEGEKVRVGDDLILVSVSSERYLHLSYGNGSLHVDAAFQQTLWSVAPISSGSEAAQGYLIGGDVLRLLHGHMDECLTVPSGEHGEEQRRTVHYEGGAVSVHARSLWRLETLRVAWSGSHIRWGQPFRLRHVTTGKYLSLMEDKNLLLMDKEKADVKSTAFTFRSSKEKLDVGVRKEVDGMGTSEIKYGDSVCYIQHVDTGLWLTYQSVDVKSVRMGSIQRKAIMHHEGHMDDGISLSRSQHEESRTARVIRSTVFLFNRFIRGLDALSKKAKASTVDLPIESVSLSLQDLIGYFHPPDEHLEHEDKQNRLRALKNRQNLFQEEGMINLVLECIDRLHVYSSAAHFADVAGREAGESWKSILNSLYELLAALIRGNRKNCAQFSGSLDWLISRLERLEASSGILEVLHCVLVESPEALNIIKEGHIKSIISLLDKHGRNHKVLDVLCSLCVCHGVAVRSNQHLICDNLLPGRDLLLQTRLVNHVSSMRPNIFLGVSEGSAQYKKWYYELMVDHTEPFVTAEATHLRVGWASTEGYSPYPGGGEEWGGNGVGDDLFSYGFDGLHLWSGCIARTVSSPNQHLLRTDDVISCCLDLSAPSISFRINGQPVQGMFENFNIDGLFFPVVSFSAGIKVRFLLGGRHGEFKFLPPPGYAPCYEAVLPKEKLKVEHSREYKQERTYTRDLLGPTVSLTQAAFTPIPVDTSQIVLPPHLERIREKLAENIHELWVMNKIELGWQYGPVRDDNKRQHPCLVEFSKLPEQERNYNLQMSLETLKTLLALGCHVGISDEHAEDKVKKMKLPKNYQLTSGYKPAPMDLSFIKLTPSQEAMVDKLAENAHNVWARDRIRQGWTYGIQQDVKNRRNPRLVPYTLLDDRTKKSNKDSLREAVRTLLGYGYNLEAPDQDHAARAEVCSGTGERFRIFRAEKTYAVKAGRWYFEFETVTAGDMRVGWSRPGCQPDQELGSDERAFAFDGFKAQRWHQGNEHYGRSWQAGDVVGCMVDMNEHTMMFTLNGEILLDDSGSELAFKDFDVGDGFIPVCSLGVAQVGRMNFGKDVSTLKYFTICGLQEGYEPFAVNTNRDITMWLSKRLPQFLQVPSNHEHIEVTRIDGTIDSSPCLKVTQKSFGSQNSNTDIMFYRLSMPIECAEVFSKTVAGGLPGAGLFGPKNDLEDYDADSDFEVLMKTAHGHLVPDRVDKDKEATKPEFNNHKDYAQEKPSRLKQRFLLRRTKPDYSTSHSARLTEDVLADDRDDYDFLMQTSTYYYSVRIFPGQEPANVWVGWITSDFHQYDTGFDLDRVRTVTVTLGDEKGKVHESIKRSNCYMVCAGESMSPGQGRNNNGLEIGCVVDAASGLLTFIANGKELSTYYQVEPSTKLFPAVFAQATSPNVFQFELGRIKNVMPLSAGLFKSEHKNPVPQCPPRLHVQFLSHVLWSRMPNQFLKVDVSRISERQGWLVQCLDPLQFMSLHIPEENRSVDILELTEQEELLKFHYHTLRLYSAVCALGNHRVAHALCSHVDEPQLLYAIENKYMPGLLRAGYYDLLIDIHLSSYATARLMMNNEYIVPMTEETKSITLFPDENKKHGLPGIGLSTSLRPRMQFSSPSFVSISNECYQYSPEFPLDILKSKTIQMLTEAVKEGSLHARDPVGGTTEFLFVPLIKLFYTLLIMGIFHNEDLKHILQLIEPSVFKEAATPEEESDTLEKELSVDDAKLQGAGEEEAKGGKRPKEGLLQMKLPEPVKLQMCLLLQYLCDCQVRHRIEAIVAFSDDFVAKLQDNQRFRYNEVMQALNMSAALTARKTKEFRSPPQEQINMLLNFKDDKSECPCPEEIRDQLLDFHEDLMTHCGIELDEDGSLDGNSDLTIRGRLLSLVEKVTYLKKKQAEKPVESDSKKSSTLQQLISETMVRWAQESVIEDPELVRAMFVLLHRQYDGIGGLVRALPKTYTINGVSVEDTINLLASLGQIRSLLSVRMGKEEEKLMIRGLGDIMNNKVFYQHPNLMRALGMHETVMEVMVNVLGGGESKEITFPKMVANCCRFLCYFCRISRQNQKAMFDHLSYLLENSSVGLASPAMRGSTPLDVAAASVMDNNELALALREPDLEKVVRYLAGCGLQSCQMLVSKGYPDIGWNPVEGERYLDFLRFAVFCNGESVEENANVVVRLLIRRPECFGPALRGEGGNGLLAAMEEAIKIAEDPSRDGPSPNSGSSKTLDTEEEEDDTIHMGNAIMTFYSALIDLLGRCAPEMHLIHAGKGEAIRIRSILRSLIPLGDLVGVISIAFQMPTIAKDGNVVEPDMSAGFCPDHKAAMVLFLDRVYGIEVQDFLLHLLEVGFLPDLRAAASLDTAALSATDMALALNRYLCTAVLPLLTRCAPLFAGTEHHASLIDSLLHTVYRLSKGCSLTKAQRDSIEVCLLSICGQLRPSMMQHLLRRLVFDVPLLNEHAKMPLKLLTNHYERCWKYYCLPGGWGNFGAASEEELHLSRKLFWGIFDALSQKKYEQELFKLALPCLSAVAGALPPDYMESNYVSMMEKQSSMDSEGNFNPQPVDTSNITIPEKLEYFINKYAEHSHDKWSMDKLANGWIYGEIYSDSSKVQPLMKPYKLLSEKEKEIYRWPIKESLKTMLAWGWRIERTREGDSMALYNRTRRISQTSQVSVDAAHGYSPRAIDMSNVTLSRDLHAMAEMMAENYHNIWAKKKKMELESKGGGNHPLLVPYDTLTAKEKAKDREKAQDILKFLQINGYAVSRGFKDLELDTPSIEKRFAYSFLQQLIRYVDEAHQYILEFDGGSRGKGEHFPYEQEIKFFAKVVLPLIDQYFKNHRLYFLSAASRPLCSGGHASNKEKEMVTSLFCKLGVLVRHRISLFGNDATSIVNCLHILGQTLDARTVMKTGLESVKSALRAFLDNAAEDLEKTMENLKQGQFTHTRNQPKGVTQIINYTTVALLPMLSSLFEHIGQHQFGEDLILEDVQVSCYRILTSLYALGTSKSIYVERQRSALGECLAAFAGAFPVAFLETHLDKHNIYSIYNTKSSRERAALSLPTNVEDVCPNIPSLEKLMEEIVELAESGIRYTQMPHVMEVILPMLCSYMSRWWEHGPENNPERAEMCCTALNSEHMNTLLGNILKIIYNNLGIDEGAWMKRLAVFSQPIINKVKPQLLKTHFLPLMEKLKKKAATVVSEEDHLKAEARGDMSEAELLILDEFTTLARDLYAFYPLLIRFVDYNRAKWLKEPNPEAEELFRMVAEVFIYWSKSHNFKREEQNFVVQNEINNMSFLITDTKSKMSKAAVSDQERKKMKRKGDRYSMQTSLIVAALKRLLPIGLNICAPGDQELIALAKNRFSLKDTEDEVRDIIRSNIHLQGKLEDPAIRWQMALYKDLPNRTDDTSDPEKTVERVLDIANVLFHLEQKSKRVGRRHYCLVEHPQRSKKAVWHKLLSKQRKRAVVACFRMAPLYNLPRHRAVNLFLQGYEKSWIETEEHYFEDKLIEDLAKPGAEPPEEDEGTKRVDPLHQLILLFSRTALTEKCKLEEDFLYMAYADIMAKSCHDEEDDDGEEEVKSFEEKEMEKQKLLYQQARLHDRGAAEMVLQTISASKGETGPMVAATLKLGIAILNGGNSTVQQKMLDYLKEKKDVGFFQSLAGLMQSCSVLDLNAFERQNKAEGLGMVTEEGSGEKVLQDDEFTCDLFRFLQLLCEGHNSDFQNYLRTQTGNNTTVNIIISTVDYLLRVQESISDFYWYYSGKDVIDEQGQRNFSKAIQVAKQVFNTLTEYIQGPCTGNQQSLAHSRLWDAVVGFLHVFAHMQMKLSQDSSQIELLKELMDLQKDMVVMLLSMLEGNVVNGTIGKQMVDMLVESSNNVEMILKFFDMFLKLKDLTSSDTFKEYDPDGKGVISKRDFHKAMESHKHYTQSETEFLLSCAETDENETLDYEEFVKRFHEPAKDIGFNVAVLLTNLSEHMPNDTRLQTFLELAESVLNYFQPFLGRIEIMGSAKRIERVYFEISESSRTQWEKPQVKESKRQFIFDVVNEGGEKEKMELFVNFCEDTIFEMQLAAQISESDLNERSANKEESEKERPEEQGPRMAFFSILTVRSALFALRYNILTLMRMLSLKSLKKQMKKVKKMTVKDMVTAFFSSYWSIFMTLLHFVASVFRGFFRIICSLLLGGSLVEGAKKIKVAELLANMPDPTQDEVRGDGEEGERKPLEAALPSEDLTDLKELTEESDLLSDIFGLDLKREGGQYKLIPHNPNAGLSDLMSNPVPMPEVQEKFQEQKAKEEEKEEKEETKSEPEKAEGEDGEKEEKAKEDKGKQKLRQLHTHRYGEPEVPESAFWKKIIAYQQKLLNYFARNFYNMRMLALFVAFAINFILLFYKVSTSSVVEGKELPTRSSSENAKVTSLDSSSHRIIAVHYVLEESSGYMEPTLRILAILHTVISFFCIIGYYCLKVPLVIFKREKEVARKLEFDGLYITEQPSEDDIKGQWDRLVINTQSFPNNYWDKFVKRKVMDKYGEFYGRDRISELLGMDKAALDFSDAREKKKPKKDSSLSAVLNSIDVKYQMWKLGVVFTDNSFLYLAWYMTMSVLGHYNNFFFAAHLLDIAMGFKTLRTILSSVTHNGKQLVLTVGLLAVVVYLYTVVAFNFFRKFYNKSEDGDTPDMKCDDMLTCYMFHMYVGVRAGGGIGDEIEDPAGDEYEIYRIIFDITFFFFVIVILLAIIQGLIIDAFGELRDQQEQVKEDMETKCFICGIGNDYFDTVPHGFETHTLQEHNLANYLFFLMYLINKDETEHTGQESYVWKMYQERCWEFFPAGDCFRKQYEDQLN

| Compound | solubility [1] [µg/mL] | EC50 [2] [nM] | EC50 [3] [nM] | EC50 [4] [ppm] | EC50 [5] [ppm] | EC50 [6] [nM] | EC50 [7] [nM] | EC50 [8] [ppm] | Selectivity ratio [9] | logP [10] | Selectivity ratio [11] | EC50 [12] [nM] | EC50 [13] [nM] | logP [14] |
| --- | --- | --- | --- | --- | --- | --- | --- | --- | --- | --- | --- | --- | --- | --- |
| CNC(=O)c1cc(Cl)cc(C)c1NC(=O)c1cc(Br)nn1-c1ncccc1Cl [CHLORANTRANILIPROLE] | 1 (≈ 2.07 µM) | 14000 | 40 | 0.02 | 0.05 | 40 | > 100000 | 0.01 | > 2000 | 2.86 | 300 | > 100000 |  |  |
| Cc1cc(C(F)(C(F)(F)F)C(F)(F)F)ccc1NC(=O)c1cccc(I)c1C(=O)NC(C)(C)CS(C)(=O)=O [FLUBENDIAMIDE] | 0.03 (≈ 0.044 µM) |  |  |  |  |  |  |  |  |  |  |  | 690 | 4.2 |
